These results are taken from patent publication US20260217668A1, “CRYSTALLINE FORMS OF A LPA1 ANTAGONIST” (Bristol-Myers Squibb Company, priority 2022, published 2026).

The data set can be described thus: Moisture sorption isotherms. Type of data set: physicochemical. The note with it: moisture sorption at 25° C., 4 to 95% RH (FIG. 4). As to the method: Moisture sorption isotherms were collected in a TA Instrument VTI-SA+ Vapor Sorption Analyzer using approximately 270 mg of sample in a 250 μL ceramic pan. The sample was dried at 30° C. until the loss rate of 0.005 wt %/min was obtained for 10 minutes. The sample was tested at 25° C. and 4, 5, 15, 25, 35, 45, 50, 65, 75, 85, and 95% RH. Equilibration at each RH was reached when the rate of 0.01 wt %/min for 35 minutes was achieved or a maximum of 600 minutes.

SMILES strings stand for the structures.

Take `CCCN(C)C(=O)OCc1c(-c2ccc(O[C@H]3CCC[C@H](C(=O)O)C3)c(C)n2)nnn1C` [Form A]: the hygroscopicity result is recorded as “non-hygroscopicity”.
